Measured values as given in patent US9718792B2, “Isoxazoline hydroxamic acid derivatives as LpxC inhibitors” (priority 2014, dated 2017).
In brackets after ≈: the same amount, converted by molar mass.

Columns and labels:
[1] = target: P. aeruginosa LpxC (Pseudomonas aeruginosa (strain ATCC 15692 / DSM 22644 / CIP 104116 / JCM 14847 / LMG 12228 / 1C / PRS 101 / PAO1), UniProt P47205); assay: P. aeruginosa LpxC Inhibition Assay; type: biochemical; settings: 1 nM P. aeruginosa LpxC, 2 μM substrate, LC-MS/MS; read-out: PA LpxC IC50
Outline: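 Compounds pre-incubated 30 min at room temperature with 1 nM LpxC, then 2 μM UDP-3-O-(R-3-hydroxydecanoyl)-GlcNAc added; 20 min reaction in 50 mM sodium phosphate pH 7.5, 0.005% Triton X-100, quenched with HOAc. Product quantified by LC-MS/MS against calibration curve; IC50 from four-parameter logistic fit.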

[2] = test system: P. aeruginosa PAO1; assay: Susceptibility Testing (MIC, broth microdilution); type: cell-based, Pseudomonas aeruginosa; settings: P. aeruginosa PAO1, broth microdilution, 20 hours; for MIC: Pseudomonas aeruginosa, PAO1, 20 h, read-out: PAO1 MIC
Outline: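 Broth microdilution per CLSI in cation-adjusted Mueller-Hinton broth, inoculum ~5×10^5 CFU/mL, two-fold compound dilutions (1% DMSO final). Plates incubated 20 h in ambient air at 35° C. MIC is the lowest concentration preventing visible growth, confirmed by OD 600 nm reading.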

Molecule	IC50 [1] [pM]	MIC [2] [µg/mL]	PAO1 MIC [2] [µg/mL]
C[C@@H](O)Cc1cc(F)c(-c2ccc(C3=NO[C@@H](C[C@](C)(C(=O)NO)S(C)(=O)=O)C3)cc2F)c(F)c1 [Compound 116, (R)—N-hydroxy-2-methyl-2-(methylsulfonyl)-3-((R)-3-(2,2′,6′-trifluoro-4′-((R)-2-hydroxypropyl)-[1,1′-biphenyl]-4-yl)-4,5-dihydroisoxazol-5-yl) propanamide]	< 500	0.5 (≈ 0.972 µM)	
C[C@@](C[C@H]1CC(c2ccc(-c3ccncc3F)c(F)c2)=NO1)(C(=O)NO)S(C)(=O)=O [Compound 117, (R)-3-((R)-3-(3-fluoro-4-(3-fluoropyridin-4-yl)phenyl)-4,5-dihydroisoxazol-5-yl)-N-hydroxy-2-methyl-2-(methylsulfonyl)propanamide]	< 500	0.35 (≈ 0.796 µM)	
Cc1cc(-c2ccc(C3=NO[C@@H](C[C@](C)(C(=O)NO)S(C)(=O)=O)C3)cc2F)cc(C)n1 [Compound 118, (R)-3-((R)-3-(4-(2,6-dimethylpyridin-4-yl)-3-fluorophenyl)-4,5-dihydroisoxazol-5-yl)-N-hydroxy-2-methyl-2-(methylsulfonyl)propanamide]	4000	4 (≈ 8.9 µM)	
C[C@@](C[C@H]1CC(c2ccc(-c3ccncc3F)cc2F)=NO1)(C(=O)NO)S(C)(=O)=O [Compound 119, (R)-3-((R)-3-(2-fluoro-4-(3-fluoropyridin-4-yl)phenyl)-4,5-dihydroisoxazol-5-yl)-N-hydroxy-2-methyl-2-(methylsulfonyl)propanamide]	< 500	0.71 (≈ 1.62 µM)	
CCc1ccc(C2=NO[C@@H](C[C@](C)(C(=O)NO)S(C)(=O)=O)C2)c(F)c1 [Compound 120, (R)-3-((R)-3-(4-ethyl-2-fluorophenyl)-4,5-dihydroisoxazol-5-yl)-N-hydroxy-2-methyl-2-(methylsulfonyl)propanamide]	600	0.5 (≈ 1.34 µM)	
Cc1cc(C2=NO[C@@H](C[C@](C)(C(=O)NO)S(C)(=O)=O)C2)ccc1-c1ccc(C[C@@H](C)O)cc1 [Compound 121, (R)—N-hydroxy-3-((R)-3-(4′-((R)-2-hydroxypropyl)-2-methyl-[1,1′-biphenyl]-4-yl)-4,5-dihydroisoxazol-5-yl)-2-methyl-2-(methylsulfonyl)propanamide]	< 500	0.5 (≈ 1.05 µM)	
C[C@@H](O)Cc1ccc(-c2c(F)cc(C3=NO[C@@H](C[C@](C)(C(=O)NO)S(C)(=O)=O)C3)cc2F)cc1 [Compound 122, (R)-3-((R)-3-(2,6-difluoro-4′-((R)-2-hydroxypropyl)-[1,1′-biphenyl]-4-yl)-4,5-dihydroisoxazol-5-yl)-N-hydroxy-2-methyl-2-(methylsulfonyl)propanamide]	< 500	0.5 (≈ 1.01 µM)	
CC#Cc1ccc(C2=NO[C@@H](C[C@](C)(C(=O)NO)S(C)(=O)=O)C2)c(F)c1 [Compound 123, (R)-3-((R)-3-(2-fluoro-4-(prop-1-yn-1-yl)phenyl)-4,5-dihydroisoxazol-5-yl)-N-hydroxy-2-methyl-2-(methylsulfonyl)propanamide]	< 500	0.25 (≈ 0.654 µM)	
(R)-3-((R)-3-(2-fluoro-4′-((R)-2-hydroxypropyl)-[1,1′-biphenyl]-4-yl)-4,5-dihydroisoxazol-5-yl)-N-hydroxy-2-methyl-2-(methylsulfonyl)propanamide [Compound 107]	500		0.25
